Measurements taken from patent US4366148A, “Use of somatostatin in the prevention and cure of vascular, membrane, or organ lesions” (Brigham and Women's Hospital, priority 1981, dated 1982).
Numbered stars: 1 amine (or outer) side, 2 acyl side, 3 side chain; on linkers, the order of the positions; unused ones are H or OH. Bridge positions count the residues as written; N and C are the ends. Square brackets hold non-standard residues; d marks the D form. Peptide text beside a SMILES is read from it. Trp(2-yl) = O=C([C@H](Cc1c([*:3])[nH]c2ccccc12)N[*:1])[*:2]; Leu(4R-OH,5-OH) = C[C@](O)(CO)C[C@H](N)C(=O)O; cisHyp = O=C(O)[C@@H]1C[C@H](O)CN1

Legend:
rats given phalloidin [1] = experiment: Toxicity of phalloidin: hemorrhagic liver lesions and mortality after pretreatment; format: in vivo, Sprague-Dawley rat; settings: for Hepatic lesions (Scale: 0-3) / Mortality (%): pretreatment before phalloidin 0.12 mg/100 g i.p.; for Hepatic lesions (Scale: 0-3): 0=normal, 3=enlargement and uniform hemorrhage of whole liver; for Mortality (%): observed up to 24 hr; for protective effect against phalloidin toxicity (lesions, mortality), in words: rats given phalloidin 0.12 mg/100 g i.p.
Experimental: In the present studies, Sprague-Dawley rats with an initial body weight of about 200 g had free access to Purina lab chow and tap water. Each control and experimental group consisted of 3-5 animals; every experiment was performed at least twice and the results were pooled.
Somatostatin (250 μg in 1 ml of protamine sulfate and ZnCl2 suspension) was injected s.c. 30 min before and 30 min after the administration of phalloidin (0.12 mg/100 g i.p.). In addition, 10 min before the toxin, another dose of 250 μg of somatostatin in 1 ml of distilled water was given i.p. Other groups of rats also received the sulfhydryl blocker N-ethylmaleimide (alone or in combination with somatostatin), 2 mg/100 g s.c. 20 min before and 40 min after phalloidin. A --SH free agalogue of somatostatin was used instead of the regular somatostatin in the same dose and at the same time in some experiments. This --SH free analogus was Di-S-tBu-Somatostatin, in which the hydrogens of the --SH groups (cystein) were replaced with t-butyl groups. […] The hemorrhagic liver lesions were evaluated on a scale of 0-3, where 0=normal, 1=multifocal (1-5 mm) hemorrhages, 2=large hemorrhagic areas entirely involving one lobe (usually the left and/or medium), 3=enlargement and uniform hemorrhage involving the whole liver.

rats given phalloidin [2] = experiment: Model study: phalloidin intoxication of rats, mortality, liver weight, histology; format: in vivo, rat; settings: for liver histology (light microscopy): phalloidin-intoxicated rats, with or without somatostatin
Experimental: This toxin kills rats within about 4 hours after intraperitoneal injection. Rats injected with phalloidin show a massive increase in liver size accompanied by hemorrhage. In a control group of rats given phalloidin but no somatostatin, 22 or 24 rats died within 2-4 hours. […] In the test group of 26 animals that were treated with both phalloidin and somatostatin, only 8 rats died. Furthermore, only a 30% average increase in liver weight was found in 10 animals treated with somatostatin and phalloidin and sacrificed four hours after intoxication.

[3] = tested on: hepatic blood vessels of rats given phalloidin; experiment: Hepatic uptake of Evans blue after phalloidin (vascular and hepatic membrane lesions); format: in vivo, Sprague-Dawley rat; settings: for Evans blue (μg/g liver): Evans blue 1 mg/100 g i.v. 15 min before autopsy, somatostatin 250 μg s.c. 30 and 10 min before phalloidin; for hepatic uptake of Evans blue, in words: rats given phalloidin with or without somatostatin
Experimental: (§1) In the biochemical experiments, the animals were also injected with Evans blue 15 min before autopsy. At autopsy the portal vein was perfused in situ with 20 ml of saline to remove blood from hepatic vasculature. […] In the morphologic experiments, groups of rats were also injected with colloidal carbon (India ink, 0.1 mg/100 g i.v.) 15 min before autopsy. At that time pieces of liver were processed for subsequent light or electron microscopic studies. […] In rats given phalloidin, carbon labeling of sinusoidal macrophages was decreased in the centrilobular areas, while early deposits of carbon were seen along the sinusoidal walls in the periportal regions. […] As opposed to controls, carbon particles were also seen beyond endothelial cells and in Disse space soon after phalloidin injection. Subsequently, vacuolation of hepatocytes and increased amount of extravascular plasma-like material were noticed.
In all of the experiments, female or male Sprague-Dawley rats (150-200 g) were used. The animals were given free access to Purina lab chow and tap water. Each group consisted of at least 3-4 rats; every experiment was repeated at least twice and the results were pooled.
Control animals were injected with normal saline 30 min prior to sacrifice and autopsy. Animals treated with phalloidin alone were injected i.p. with 0.12 mg/100 g body weight 15 min, 30 min, or 60 min before sacrifice and autopsy. Animals treated with both phalloidin and somatostatin received phalloidin as above in addition to 250 μg s.c. somatostatin at 30 and 10 minutes before the phalloidin injection. The first somatostatin injection was dissolved in 1 ml of solution consisting of 0.5 ml of 0.1% protamine sulfate and 0.5 ml of ZnCl2, 250-260 μg/ml. The second somatostatin injection was given in normal saline. In addition, rats of all groups were given Evans blue, 1 mg/100 g i.v., 15 min before sacrifice and autopsy. Livers were prefused with 20 ml of saline in situ through the protal vein to remove intravascular dye prior to measuring dye uptake by the liver tissue.
A one gram sample from the left lobe was measured spectrophotometrically to determine the uptake of Evans blue dye in μg/g liver tissue.

[4] = tested on: liver of rats given phalloidin; experiment: Morphologic experiments: colloidal carbon (India ink) labeling of liver, light and electron microscopy; format: in vivo, rat
Experimental: In both cases, rats were given saline (control), phalloidin alone, or phalloidin and somatostatin. Somatostatin was given in subcutaneous injections in a solution of protamine sulfate and zinc chloride in order to prolong its effectiveness, or in normal saline.
as §1

[5] = tested on: cysteamine-induced duodenal ulcer; settings: pretreatment with exogenous somatostatin; cited from earlier work
[6] = tested on: experimentally-induced pancreatitis; settings: in vivo; cited from earlier work
adrenal and lung lesions = settings: in vivo; cited from earlier work
[7] = 15 min after phalloidin 0.12 mg/100 g i.p.
[8] = 30 min after phalloidin 0.12 mg/100 g i.p.
[9] = 60 min after phalloidin 0.12 mg/100 g i.p.

With `CCN1C(=O)C=CC1=O` [N--Ethylmaleimide (N--EM), N-ethylmaleimide] the “Hepatic lesions (Scale: 0-3)” value (rats given phalloidin [1]) was 2.3 ± 0.2, the “Mortality (%)” value (rats given phalloidin [1]) was 90% and the “protective effect against phalloidin toxicity (lesions, mortality), in words” value (from here on “protective effect”) (rats given phalloidin [1]; listed as N-ethylmaleimide) was “counteracted the protective action of regular somatostatin”. The “protective effect” value (rats given phalloidin [1]; listed as N-ethylmaleimide (N-EM)) was “counteracted the beneficial effect of somatostatin”.

In the case of `C[C@@H]1NC(=O)[C@H](C[C@@](C)(O)CO)NC(=O)[C@@H]2Cc3c([nH]c4ccccc34)SC[C@H](NC(=O)[C@@H]([C@H](C)O)NC1=O)C(=O)N1C[C@@H](O)C[C@H]1C(=O)N[C@@H](C)C(=O)N2` [Phalloidin, phalloidin] (cyclo(A[dT]C[cisHyp]A[Trp(2-yl)][Leu(4R-OH,5-OH)]); thioether 3-6), the “time within which the toxin kills rats” value (rats given phalloidin [2]; after intraperitoneal injection) is reported as no more than 4 h, the “average increase in liver weight, phalloidin alone” value (rats given phalloidin [2]; autopsy of rats that died after phalloidin alone) is reported as 70% and the “rats died, phalloidin but no somatostatin” value (rats given phalloidin [2]; control group of 24 rats given phalloidin alone) is reported as 22 rats. For the same compound, the “time within which control rats died” value (rats given phalloidin [2]; control group, phalloidin but no somatostatin) was 2 to 4 h, the “liver histology (light microscopy)” value (rats given phalloidin [2]) was “vacuolization of hepatocytes, congestion, and hemorrhagic necrosis” and the “Evans blue (μg/g liver)” value [3, 7] was 11.21 ± 2.40 μg/g liver. The “Evans blue (μg/g liver)” value [3, 8] was 28.50 ± 4.67 μg/g liver, the “Evans blue (μg/g liver)” value [3, 9] was 51.08 ± 13.56 μg/g liver and the “hepatic uptake of Evans blue, in words” value [3] was “time dependent increase”.

In the case of “Di-S-tBu-Somatostatin [di-S--tBu-Somatostatin]”, the “Hepatic lesions (Scale: 0-3)” value (rats given phalloidin [1]) is reported as 2.7 ± 0.2, the “Mortality (%)” value (rats given phalloidin [1]) is reported as 92% and the “protective effect” value (rats given phalloidin [1]; listed as somatostatin analogue without thiol groups) is reported as “inactive”. The “protective effect” value (rats given phalloidin [1]; listed as sulfhydryl-free derivative of somatostatin) was “without effect”.

With Somatostatin the “average increase in liver weight, somatostatin and phalloidin” value (rats given phalloidin [2]; 10 animals sacrificed four hours after intoxication) was 30%, the “liver histology (light microscopy)” value (rats given phalloidin [2]) was “only mild vacuolization of hepatocytes and slight congestion” and the “rats died, phalloidin and somatostatin” value (rats given phalloidin [2]; test group of 26 animals treated with both phalloidin and somatostatin) was 8 rats. The “Evans blue (μg/g liver)” value [3, 7] was 7.17 ± 0.64 μg/g liver, the “Evans blue (μg/g liver)” value [3, 8] was 16.93 ± 4.76 μg/g liver and the “Evans blue (μg/g liver)” value [3, 9] was 15.50 ± 4.65 μg/g liver. For the same compound, the “hepatic uptake of Evans blue, in words” value [3] was “virtually abolished this enhanced uptake”, the “hepatic uptake of Evans blue, in words” value ([3]; listed as somatostatin) was “prevented or significantly decreased” and the “distribution of India ink / carbon labeling of sinusoidal walls, light microscopy” value ([4]; colloidal carbon 0.1 mg/100 g i.v. 15 min before autopsy, after phalloidin) was “virtually abolished the carbon labeling of sinusoidal walls”. For the same compound, the “electron microscopic changes (endothelial breakdown, extravascular carbon, vacuolation of hepatocytes)” value ([4]; livers of rats given somatostatin and phalloidin) was “markedly diminished or absent”, the “Hepatic lesions (Scale: 0-3)” value (rats given phalloidin [1]) was 0.7 ± 0.2 and the “Mortality (%)” value (rats given phalloidin [1]) was 20%. For the same compound, the “protective effect” value (rats given phalloidin [1]) was “significantly diminished”, the cysteamine-induced duodenal ulcer [5] was “prevents” and the gastric acid output [5] was “minimal inhibition”. The “effect on experimentally-induced pancreatitis” value [6] was “beneficial effect” and the “effect on adrenal and lung lesions” value (adrenal and lung lesions) was “beneficial effect”.
